Data published in patent US10314816B2, “Antimicrobial compounds, compositions and methods of use thereof” (Wisconsin Alumni Research Foundation, priority 2012, dated 2019).

Tests used:
GFP-MinD = assay: Measurement of compound effects on MinD localization; type: cell-based, Bacillus subtilis; details: B. subtilis cells, treated 20 minutes, compared to DMSO
Description: Measurement of compound effects on MinD: B. subtilis DS4294 (amyE::Pxyl-GFP-minD cat) cells were grown to exponential phase (λ=600 nm, 0.4-0.7) in LB with incubation at 30° C. and 200 rpm shaking. Cells were induced for GFP-MinD production by adding xylose to the media to a final concentration of 0.1% (w/v) followed by incubating for 75 min. After induction, cells were treated with compounds for 20 minutes before imaging. Other details for imaging conditions and data analysis were identical to those described for MipZ-YFP, except for the definition of poles, and a set of criteria used for defining ‘wildtype’ protein localization. ‘Wildtype’ was defined as 1) GFP-MinD was bipolar, meaning there were two peaks, and both peaks were at the poles (1-20% and 80-100% of the normalized cell length); 2) GFP-MinD was at the mid-cell in addition to the bipolar localization, meaning there were three peaks with two of them at the poles and one at mid-cell; and 3) GFP-MinD was at an quaternary position (20-40% and 60-80% of the normalized cell length) in addition to the bipolar and mid-cell localization (the total number of peaks was 4 if there is one quaternary peak, and the total was 5 if there are two quaternary peaks). Because B. subtilis cells can initiate division prior to finishing an earlier division and the completion of septation, these normal cells have peaks at quaternary positions. […]

E. aerogenes = assay: MIC of bacterial growth (Table 2); type: cell-based, Enterobacter aerogenes; details: Klebsiella aerogenes; E. aerogenes clinical isolate (Table 2)
Description: Determination of the minimum inhibitory concentration (MIC) of bacterial growth. The MIC of various organisms in liquid media was determined using the macrodilution method according to the NCCLS guidelines. For the starting inoculum, cultures were diluted to contain approximately 5×10^5 cells/mL in growth media. To create a two-fold dilution series for the macrodilution technique, each compound was added to the first culture tube (4 mL total volume) at the highest concentration. 2 mL of this culture was diluted into an equal volume of inoculated media (a two-fold dilution). The final volume for each culture was 2 mL.

Enterobacter aerogenes = assay: MIC of DCAP analogs, LB media, microdilution (CLSI); type: cell-based; details: Klebsiella aerogenes, microdilution (Table 6)
Description: (§1) Luria-Bertani (LB) media (10 g/L tryptone, 10 g/L NaCl, 5 g/L yeast extract, pH 7.0) was used to grow all the strains represented in Tables 5 and 6. All the cultures were grown at 37° C. All the E. coli strains were grown while shaking at 200 rpm and the clinical pathogens were statically incubated.
(§2) For clinical pathogenic organisms including S. typhimurium, V. cholera, S. boydii, K pneumonia, E. aerogenes, A. baumannii, E. tarda, and M. morganii strains, liquid LB media in 96-well microplates (100 μL/well) and the microdilution method from the CLSI guidelines were used.

Acinetobacter baumannii = assay: as above; type: cell-based; details: microdilution (Table 6)
Description: as §1, §2

Vibrio cholera = assay: as above; type: cell-based; details: Vibrio cholerae
Description: as §1, §2

Shigella boydii = assay: as above; type: cell-based; details: microdilution (Table 6)
Description: as §1, §2

Edwardsiella tarda = assay: as above; type: cell-based; details: microdilution (Table 6)
Description: as §1, §2

Klebsiella pneumonia = assay: as above; type: cell-based; details: Klebsiella pneumoniae, microdilution (Table 6)
Description: as §1, §2

Salmonella typhimurium = assay: as above; type: cell-based; details: Salmonella enterica, microdilution (Table 6)
Description: as §1, §2

Morganella morganii = assay: as above; type: cell-based; details: microdilution (Table 6)
Description: as §1, §2

[1] = tested on: C. crescentus strain (MT97); assay: In vivo screen with C. crescentus strain that expresses MipZ-YFP; type: cell-based, Caulobacter crescentus; details: 20 μM in agarose pad; data not shown
Description: In vivo screen with a Caulobacter crescentus strain that expresses MipZ-YFP. Hits from in vitro screens were tested for activity in vivo. A C. crescentus strain (MT97) that expresses mipZ-yfp from the native mipZ promoter was used. An overnight culture of MT97 was diluted to an absorbance (λ=600 nm) of ˜0.1; the diluted culture was grown further for at least 1 hour prior to compound treatment. Compounds were mixed with a solution of 1% agarose in M2G media to achieve a final concentration of 20 μM. The cells (1 μL per pad) were transferred on top of the compound-containing agarose pad, and the cell morphology and localization of MipZ-YFP were imaged for a period of 24 hours using epifluorescence microscopy. In between microscopic observations, the inoculated pads were incubated at 30° C. to promote growth.
Hits were further screened for antibacterial activity using a Caulobacter crecentus strain that expresses MipZ-YFP as described in Materials and Methods.

SMILES | GFP-MinD localization (GFP-MinD) | MIC (E. aerogenes) [µM] | MIC (Enterobacter aerogenes) [µM] | MIC (Acinetobacter baumannii) [µM] | MIC (Vibrio cholera) [µM] | MIC (Shigella boydii) [µM] | MIC (Edwardsiella tarda) [µM] | MIC (Klebsiella pneumonia) [µM] | MIC (Salmonella typhimurium) [µM] | MIC (Morganella morganii) [µM] | Antibacterial activity in the MipZ-YFP assay [1]
N#CC(C#N)=NNc1cccc(Cl)c1 [CCCP, carbonyl cyanide m-chlorophenyl hydrazone] | more diffuse fluorescence throughout the cell but had little effect on the location of the signal |  |  |  |  |  |  |  |  |  | 
OCC(CO)(CO)NCC(O)Cn1c2ccc(Cl)cc2c2cc(Cl)ccc21 (stereo not drawn) [DCAP, 2-((3-(3,6-dichloro-9H-carbazol-9-yl)-2-hydroxypropyl)amino)-2-(hydroxymethyl)propane-1,3-diol] | GFP-MinD mislocalized | 200 | 200 | 200 | 50 | 100 | 100 | 200 | 100 | 200 | confirmed as having antibacterial activity
